In US9677045B2, “Microorganisms and methods for production of 4-hydroxybutyrate, 1,4-butanediol and related compounds” (priority 2012, dated 2017):

How the values were obtained:
Aldehyde dehydrogenase = Aldehyde dehydrogenase (ALD) assay in the reductive direction, cell extracts; details: extracts of MG1655 lacI^Q with pZA33
Method: (§1) In Vitro Enzyme Assays. To obtain crude extracts for activity assays, cells were harvested by centrifugation at 4,500 rpm (Beckman-Coulter, Allegera X-15R) for 10 min. The pellets were resuspended in 0.3 mL BugBuster (Novagen) reagent with benzonase and lysozyme, and lysis proceeded for 15 minutes at room temperature with gentle shaking. Cell-free lysate was obtained by centrifugation at 14,000 rpm (Eppendorf centrifuge 5402) for 30 min at 4° C. Cell protein in the sample was determined using the method of Bradford et al., Anal. Biochem. 72:248-254 (1976), and specific enzyme assays conducted as described below. Activities are reported in Units/mg protein, where a unit of activity is defined as the amount of enzyme required to convert 1 mmol of substrate in 1 min. at room temperature. In general, reported values are averages of at least 3 replicate assays.
(§2) Alcohol (ADH) and aldehyde (ALD) dehydrogenase was assayed in the reductive direction using a procedure adapted from several literature sources (Durre et al., FEMS Microbiol. Rev. 17:251-262 (1995); Palosaari and Rogers, J. Bacteriol. 170:2971-2976 (1988) and Welch et al., Arch. Biochem. Biophys. 273:309-318 (1989). The oxidation of NADH is followed by reading absorbance at 340 nm every four seconds for a total of 240 seconds at room temperature. The reductive assays were performed in 100 mM MOPS (adjusted to pH 7.5 with KOH), 0.4 mM NADH, and from 1 to 50 μl of cell extract. The reaction is started by adding the following reagents: 100 μl of 100 mM acetaldehyde or butyraldehyde for ADH, or 100 μl of 1 mM acetyl-CoA or butyryl-CoA for ALD. The Spectrophotometer is quickly blanked and then the kinetic read is started. The resulting slope of the reduction in absorbance at 340 nm per minute, along with the molar extinction coefficient of NAD(P)H at 340 nM (6000) and the protein concentration of the extract, can be used to determine the specific activity.
(§3) Gene candidates for the 4-HB to BDO conversion pathway were next tested for activity when expressed in the E. coli host MG1655 lacI^Q. Recombinant strains containing each gene candidate expressed on pZA33 were grown in the presence of 0.25 mM IPTG for four hours at 37° C. to fully induce expression of the enzyme. Four hours after induction, cells were harvested and assayed for ADH and ALD activity as described above.

Alcohol dehydrogenase = Alcohol dehydrogenase (ADH) assay in the reductive direction, cell extracts; details: extracts of MG1655 lacI^Q with pZA33
Method: as §1, §2, §3

homoserine kinase = homoserine kinase (Escherichia coli, UniProt P00547); details: cited from earlier work; for % kcat: relative to L-homoserine
Sequence of homoserine kinase (P00547 whole entry): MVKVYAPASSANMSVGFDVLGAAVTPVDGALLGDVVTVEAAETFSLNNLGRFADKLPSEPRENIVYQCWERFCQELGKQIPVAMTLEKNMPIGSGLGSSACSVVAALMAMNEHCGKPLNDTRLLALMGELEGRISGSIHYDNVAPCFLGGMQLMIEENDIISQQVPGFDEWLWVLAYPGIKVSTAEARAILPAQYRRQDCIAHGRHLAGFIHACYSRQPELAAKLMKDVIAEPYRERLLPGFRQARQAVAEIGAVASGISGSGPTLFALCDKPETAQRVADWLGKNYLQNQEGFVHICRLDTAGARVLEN

[1] = tested on: aminotransferase from Leishmania mexicana; details: activity considered 100% on tyrosine; enzyme expressed in E. coli; cited from earlier work
[2] = tested on: 4-HB to BDO conversion pathway; experiment: Production of BDO from 10 mM 4-HB in recombinant E. coli strains
Method: For the BDO production experiments, cat2 from Porphyromonas gingivalis W83 (gene 0034) was included on pZA33 for the conversion of 4-HB to 4-HB-CoA, while the candidate dehydrogenase genes were expressed on pZE13. The host strain was MG1655 lacI^Q. Along with the alcohol and aldehyde dehydrogenase candidates, we also tested the ability of CoA-dependent succinic semialdehyde dehydrogenases (sucD) to function in this step, due to the similarity of the substrates. Cells were grown to an OD of about 0.5 in LB medium supplemented with 10 mM 4-HB, induced with 1 mM IPTG, and culture broth samples taken after 24 hours and analyzed for BDO as described below.
Finally, the construct was tested for participation in the conversion of 4-HB to BDO. Host strains were transformed with the pZA33-0020-0021 construct described and pZE13-0002, and compared to use of cat2 in BDO production using the aerobic procedure used above in FIG. 5.

0011: Gene ID 0011: adhE, E. coli, Aldehyde/alcohol dehydrogenase [Sample 0011]
Aldehyde dehydrogenase activity (Aldehyde dehydrogenase; Substrate Acetyl-CoA): 0.0095 μmol min^−1 mg cell protein^−1 | Aldehyde dehydrogenase activity (Aldehyde dehydrogenase; Substrate Butyryl-CoA): 0.0069 μmol min^−1 mg cell protein^−1 | Alcohol dehydrogenase activity (Alcohol dehydrogenase; Substrate Acetaldehyde): 0.0093 μmol min^−1 mg cell protein^−1 | Alcohol dehydrogenase activity (Alcohol dehydrogenase; Substrate Butyraldehyde): 0.0265 μmol min^−1 mg cell protein^−1

N[C@H](CCO)C(=O)O [D-homoserine]
kcat (homoserine kinase): 8.3 ± 1.1 | % kcat (homoserine kinase): 32%

N[C@H](CO)CCO [L-2-amino-1,4-butanediol]
kcat (homoserine kinase): 2.0 ± 0.5 | % kcat (homoserine kinase): 7.9%

N[C@@H](CCCO)C(=O)O [L-2-amino-5-hydroxyvalerate]
kcat (homoserine kinase): 2.5 ± 0.4 | % kcat (homoserine kinase): 9.9%

N[C@@H](CC=O)C(=O)O [L-aspartate β-semialdehyde]
kcat (homoserine kinase): 2.1 ± 0.1 | % kcat (homoserine kinase): 8.2%

CCOC(=O)[C@@H](N)CCO [L-homoserine ethyl ester]
kcat (homoserine kinase): 13.6 ± 0.8 | % kcat (homoserine kinase): 74%

CC(C)COC(=O)[C@@H](N)CCO [L-homoserine isobutyl ester]
kcat (homoserine kinase): 16.4 ± 0.8 | % kcat (homoserine kinase): 84%

CC(C)OC(=O)[C@@H](N)CCO [L-homoserine isopropyl ester]
kcat (homoserine kinase): 13.6 ± 1.4 | % kcat (homoserine kinase): 74%

COC(=O)[C@@H](N)CCO [L-homoserine methyl ester]
kcat (homoserine kinase): 14.7 ± 2.6 | % kcat (homoserine kinase): 80%

CCCOC(=O)[C@@H](N)CCO [L-homoserine n-propyl ester]
kcat (homoserine kinase): 14.0 ± 0.4 | % kcat (homoserine kinase): 76%

N[C@@H](CCO)C(=O)O [L-homoserine]
kcat (homoserine kinase): 18.3 ± 0.1 | % kcat (homoserine kinase): 100%

CCCCOC(=O)[C@@H](N)CCO [L-homserine n-butyl ester]
kcat (homoserine kinase): 29.1 ± 1.2 | % kcat (homoserine kinase): 160%

CC(C)C[C@H](N)C(=O)O [leucine]
activity relative to tyrosine [1]: 25%

CSCC[C@H](N)C(=O)O [methionine]
activity relative to tyrosine [1]: 25%

N[C@@H](Cc1ccccc1)C(=O)O [phenylalanine]
activity relative to tyrosine [1]: 90%

N[C@@H](Cc1c[nH]c2ccccc12)C(=O)O [tryptophan]
activity relative to tyrosine [1]: 85%

N[C@@H](Cc1ccc(O)cc1)C(=O)O [tyrosine]
activity relative to tyrosine [1]: 100%

B1: 0002: Gene ID 0002: adhE, Clostridium acetobutylicum ATCC 824, Aldehyde/alcohol dehydrogenase (protein, UniProt P33744 1-862, looked up)
Aldehyde-alcohol dehydrogenase: MKVTTVKELDEKLKVIKEAQKKFSCYSQEMVDEIFRNAAMAAIDARIELAKAAVLETGMGLVEDKVIKNHFAGEYIYNKYKDEKTCGIIERNEPYGITKIAEPIGVVAAIIPVTNPTSTTIFKSLISLKTRNGIFFSPHPRAKKSTILAAKTILDAAVKSGAPENIIGWIDEPSIELTQYLMQKADITLATGGPSLVKSAYSSGKPAIGVGPGNTPVIIDESAHIKMAVSSIILSKTYDNGVICASEQSVIVLKSIYNKVKDEFQERGAYIIKKNELDKVREVIFKDGSVNPKIVGQSAYTIAAMAGIKVPKTTRILIGEVTSLGEEEPFAHEKLSPVLAMYEADNFDDALKKAVTLINLGGLGHTSGIYADEIKARDKIDRFSSAMKTVRTFVNIPTSQGASGDLYNFRIPPSFTLGCGFWGGNSVSENVGPKHLLNIKTVAERRENMLWFRVPHKVYFKFGCLQFALKDLKDLKKKRAFIVTDSDPYNLNYVDSIIKILEHLDIDFKVFNKVGREADLKTIKKATEEMSSFMPDTIIALGGTPEMSSAKLMWVLYEHPEVKFEDLAIKFMDIRKRIYTFPKLGKKAMLVAITTSAGSGSEVTPFALVTDNNTGNKYMLADYEMTPNMAIVDAELMMKMPKGLTAYSGIDALVNSIEAYTSVYASEYTNGLALEAIRLIFKYLPEAYKNGRTNEKAREKMAHASTMAGMASANAFLGLCHSMAIKLSSEHNIPSGIANALLIEEVIKFNAVDNPVKQAPCPQYKYPNTIFRYARIADYIKLGGNTDEEKVDLLINKIHELKKALNIPTSIKDAGVLEENFYSSLDRISELALDDQCTGANPRFPLTSEIKEMYINCFKKQP
BDO/OD ([2]; Aerobic): 15.2 | BDO ([2]; Aerobic, 10 mM 4-HB, 24 hours, cat2 (0034) on pZA33): 138.3 µM | BDO/OD ([2]; Anaerobic): 40.5 | BDO ([2]; Anaerobic, 10 mM 4-HB, 24 hours, cat2 (0034) on pZA33): 54.7 µM | BDO/OD ([2]; Microaerobic): 8.73 | BDO ([2]; Microaerobic, 10 mM 4-HB, 24 hours, cat2 (0034) on pZA33): 48.2 µM | Aldehyde dehydrogenase activity (Aldehyde dehydrogenase; Substrate Acetyl-CoA): 0.0046 μmol min^−1 mg cell protein^−1 | Aldehyde dehydrogenase activity (Aldehyde dehydrogenase; Substrate Butyryl-CoA): 0.0076 μmol min^−1 mg cell protein^−1 | Alcohol dehydrogenase activity (Alcohol dehydrogenase; Substrate Acetaldehyde): 0.0247 μmol min^−1 mg cell protein^−1 | Alcohol dehydrogenase activity (Alcohol dehydrogenase; Substrate Butyraldehyde): 0.0264 μmol min^−1 mg cell protein^−1

B2: 0034: Gene ID 0034: cat2, Porphyromonas gingivalis W83, 4-hydroxybutyrate coenzyme A transferase (protein, listed as Porphyromonas gingivalis)
chain: MKDVLAEYASRIVSAEEAVKHIKNGERVALSHAAGVPQSCVDALVQQADLFQNVEIYHMLCLGEGKYMAPEMAPHFRHITNFVGGNSRKAVEENRADFIPVFFYEVPSMIRKDILHIDVAIVQLSMPDENGYCSFGVSCDYSKPAAESAHLVIGEINRQMPYVHGDNLIHISKLDYIVMADYPIYSLAKPKIGEVEEAIGRNCAELIEDGATLQLGIGAIPDAALLFLKDKKDLGIHTEMFSDGVVELVRSGVITGKKKTLHPGKMVATFLMGSEDVYHFIDKNPDVELYPVDYVNDPRVIAQNDNMVSINSCIEIDLMGQVVSECIGSKQFSGTGGQVDYVRGAAWSKNGKSIMAIPSTAKNGTASRIVPIIAEGAAVTTLRNEVDYVVTEYGIAQLKGKSLRQRAEALIAIAHPDFREELTKHLRKRFG
BDO/OD ([2]; Host MG1655 lacI^Q): 0.042 | BDO ([2]; Host MG1655 lacI^Q, adhE2 in pZE13, aerobic procedure): 0.827 µM | BDO/OD ([2]; Host MG1655 ΔadhE lacI^Q): 0.166 | BDO ([2]; Host MG1655 ΔadhE lacI^Q, adhE2 in pZE13, aerobic procedure): 2.084 µM

B3: 0026: Gene ID 0026: bdhA, Clostridium acetobutylicum ATCC 824, Butanol dehydrogenase (protein, UniProt Q04944 1-389, looked up)
NADH-dependent butanol …: MLSFDYSIPTKVFFGKGKIDVIGEEIKKYGSRVLIVYGGGSIKRNGIYDRATAILKENNIAFYELSGVEPNPRITTVKKGIEICRENNVDLVLAIGGGSAIDCSKVIAAGVYYDGDTWDMVKDPSKITKVLPIASILTLSATGSEMDQIAVISNMETNEKLGVGHDDMRPKFSVLDPTYTFTVPKNQTAAGTADIMSHTFESYFSGVEGAYVQDGIAEAILRTCIKYGKIAMEKTDDYEARANLMWASSLAINGLLSLGKDRKWSCHPMEHELSAYYDITHGVGLAILTPNWMEYILNDDTLHKFVSYGINVWGIDKNKDNYEIAREAIKNTREYFNSLGIPSKLREVGIGKDKLELMAKQAVRNSGGTIGSLRPINAEDVLEIFKKSY
Aldehyde dehydrogenase activity (Aldehyde dehydrogenase; Substrate Acetyl-CoA): 0.0005 μmol min^−1 mg cell protein^−1 | Aldehyde dehydrogenase activity (Aldehyde dehydrogenase; Substrate Butyryl-CoA): 0 μmol min^−1 mg cell protein^−1 | Alcohol dehydrogenase activity (Alcohol dehydrogenase; Substrate Acetaldehyde): 0.0008 μmol min^−1 mg cell protein^−1 | Alcohol dehydrogenase activity (Alcohol dehydrogenase; Substrate Butyraldehyde): 0.0024 μmol min^−1 mg cell protein^−1

B4: 0013: Gene ID 0013: bdhB, Clostridium acetobutylicum ATCC 824, Butanol dehydrogenase II (protein, UniProt Q04945 1-390, looked up)
NADH-dependent butanol …: MVDFEYSIPTRIFFGKDKINVLGRELKKYGSKVLIVYGGGSIKRNGIYDKAVSILEKNSIKFYELAGVEPNPRVTTVEKGVKICRENGVEVVLAIGGGSAIDCAKVIAAACEYDGNPWDIVLDGSKIKRVLPIASILTIAATGSEMDTWAVINNMDTNEKLIAAHPDMAPKFSILDPTYTYTVPTNQTAAGTADIMSHIFEVYFSNTKTAYLQDRMAEALLRTCIKYGGIALEKPDDYEARANLMWASSLAINGLLTYGKDTNWSVHLMEHELSAYYDITHGVGLAILTPNWMEYILNNDTVYKFVEYGVNVWGIDKEKNHYDIAHQAIQKTRDYFVNVLGLPSRLRDVGIEEEKLDIMAKESVKLTGGTIGNLRPVNASEVLQIFKKSV
Alcohol dehydrogenase activity (Alcohol dehydrogenase; Substrate Acetaldehyde): 0.0142 μmol min^−1 mg cell protein^−1 | Alcohol dehydrogenase activity (Alcohol dehydrogenase; Substrate Butyraldehyde): 0.0130 μmol min^−1 mg cell protein^−1
